# According to PubChem BioAssay AID1963981 (Molecular Pharmacology Branch, DTP, NCI, 2024):
# Test system: 354836-022-R-J1-PDC multicell spheroid viability
# Experiment: Anticancer human tumor 354836-022-R-J1-PDC patient-derived head and neck squamous cell carcinoma cell line growth inhibition [PI3K]
# Settings: for IC50: curve of first compound; for viability, T/C: stronger effect = lower value
# Outline: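 Agents were dosed from a top concentration near clinical Cmax (otherwise 10 microM) in half-log decrements, alone or combined with PI3K inhibitors. The spheroids contain tumor cells plus endothelial (HUVEC) and MSC stroma; viability is measured.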
# [1] = second compound 0.0316 µM, first compound 0.000316 µM
# [2] = second compound 0.0316 µM, first compound 0.001 µM
# [3] = second compound 0.0316 µM, first compound 0.00316 µM
# [4] = second compound 0.0316 µM, first compound 0.01 µM
# [5] = second compound 0.0316 µM, first compound 0.0316 µM
# [6] = second compound 0.0316 µM, first compound 0.1 µM
# [7] = second compound 0.1 µM, first compound 0.000316 µM
# [8] = second compound 0.1 µM, first compound 0.001 µM
# [9] = second compound 0.1 µM, first compound 0.00316 µM
# [10] = second compound 0.1 µM, first compound 0.01 µM
# [11] = second compound 0.1 µM, first compound 0.0316 µM
# [12] = second compound 0.1 µM, first compound 0.1 µM
# [13] = second compound 0.316 µM, first compound 0.000316 µM
# [14] = second compound 0.316 µM, first compound 0.001 µM
# [15] = second compound 0.316 µM, first compound 0.00316 µM
# [16] = second compound 0.316 µM, first compound 0.01 µM
# [17] = second compound 0.316 µM, first compound 0.0316 µM
# [18] = second compound 0.316 µM, first compound 0.1 µM
# [19] = second compound 1 µM, first compound 0.000316 µM
# [20] = second compound 1 µM, first compound 0.001 µM
# [21] = second compound 1 µM, first compound 0.00316 µM
# [22] = second compound 1 µM, first compound 0.01 µM
# [23] = second compound 1 µM, first compound 0.0316 µM
# [24] = second compound 1 µM, first compound 0.1 µM
# [25] = second compound 3.16 µM, first compound 0.000316 µM
# [26] = second compound 3.16 µM, first compound 0.001 µM
# [27] = second compound 3.16 µM, first compound 0.00316 µM
# [28] = second compound 3.16 µM, first compound 0.01 µM
# [29] = second compound 3.16 µM, first compound 0.0316 µM
# [30] = second compound 3.16 µM, first compound 0.1 µM
# [31] = second compound 10 µM, first compound 0.000316 µM
# [32] = second compound 10 µM, first compound 0.001 µM
# [33] = second compound 10 µM, first compound 0.00316 µM
# [34] = second compound 10 µM, first compound 0.01 µM
# [35] = second compound 10 µM, first compound 0.0316 µM
# [36] = second compound 10 µM, first compound 0.1 µM
# 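Further: spheroids exposed to agents for seven days before the viability read.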
structure (smiles),measurement,setting,value
CC(=O)c1c(C)c2cnc(Nc3ccc(N4CCNCC4)cn3)nc2n(C2CCCC2)c1=O + CC(Nc1ncnc2nc[nH]c12)c1cc2cccc(Cl)c2c(=O)n1-c1ccccc1,IC50,second compound 0.0316 µM,> 100 nM
same,IC50,second compound 0.1 µM,> 100 nM
same,IC50,second compound 0.316 µM,> 100 nM
same,IC50,second compound 1 µM,> 100 nM
same,IC50,second compound 3.16 µM,> 100 nM
same,IC50,second compound 10 µM,> 100 nM
same,"viability, T/C",[1],96.8%
same,"viability, T/C",[2],110%
same,"viability, T/C",[3],108%
same,"viability, T/C",[4],103%
same,"viability, T/C",[5],97.7%
same,"viability, T/C",[6],99.5%
same,"viability, T/C",[7],89.4%
same,"viability, T/C",[8],99.3%
same,"viability, T/C",[9],94.9%
same,"viability, T/C",[10],91.5%
same,"viability, T/C",[11],105%
same,"viability, T/C",[12],101%
same,"viability, T/C",[13],90%
same,"viability, T/C",[14],98.8%
same,"viability, T/C",[15],100%
same,"viability, T/C",[16],100%
same,"viability, T/C",[17],111%
same,"viability, T/C",[18],113%
same,"viability, T/C",[19],82.2%
same,"viability, T/C",[20],96.7%
same,"viability, T/C",[21],97.2%
same,"viability, T/C",[22],110%
same,"viability, T/C",[23],96.8%
same,"viability, T/C",[24],91.6%
same,"viability, T/C",[25],108%
same,"viability, T/C",[26],107%
same,"viability, T/C",[27],98.5%
same,"viability, T/C",[28],104%
same,"viability, T/C",[29],88.3%
same,"viability, T/C",[30],90.2%
same,"viability, T/C",[31],89.8%
same,"viability, T/C",[32],95.2%
same,"viability, T/C",[33],91.1%
same,"viability, T/C",[34],109%
same,"viability, T/C",[35],98.8%
same,"viability, T/C",[36],91.5%
CC(C)n1nc(-c2ccc3oc(N)nc3c2)c2c(N)ncnc21 + CC(Nc1ncnc2nc[nH]c12)c1cc2cccc(Cl)c2c(=O)n1-c1ccccc1,IC50,second compound 0.0316 µM,15.5 nM
same,IC50,second compound 0.1 µM,21.7 nM
same,IC50,second compound 0.316 µM,16.4 nM
same,IC50,second compound 1 µM,15.5 nM
same,IC50,second compound 3.16 µM,19.3 nM
same,IC50,second compound 10 µM,16.8 nM
same,"viability, T/C",[1],88.2%
same,"viability, T/C",[2],96.5%
same,"viability, T/C",[3],79.9%
same,"viability, T/C",[4],57%
same,"viability, T/C",[5],35.3%
same,"viability, T/C",[6],5.53%
same,"viability, T/C",[7],97.8%
same,"viability, T/C",[8],102%
same,"viability, T/C",[9],81.1%
same,"viability, T/C",[10],86.3%
same,"viability, T/C",[11],32.8%
same,"viability, T/C",[12],4.44%
same,"viability, T/C",[13],92.6%
same,"viability, T/C",[14],101%
same,"viability, T/C",[15],80.7%
same,"viability, T/C",[16],61.2%
same,"viability, T/C",[17],34.9%
same,"viability, T/C",[18],6.09%
same,"viability, T/C",[19],113%
same,"viability, T/C",[20],98.2%
same,"viability, T/C",[21],92.7%
same,"viability, T/C",[22],59.5%
same,"viability, T/C",[23],31.6%
same,"viability, T/C",[24],5.81%
same,"viability, T/C",[25],105%
same,"viability, T/C",[26],99%
same,"viability, T/C",[27],73.1%
same,"viability, T/C",[28],68.1%
same,"viability, T/C",[29],40.9%
same,"viability, T/C",[30],5.66%
same,"viability, T/C",[31],95.5%
same,"viability, T/C",[32],101%
same,"viability, T/C",[33],89.2%
same,"viability, T/C",[34],62.7%
same,"viability, T/C",[35],33.3%
same,"viability, T/C",[36],6.25%
CCCS(=O)(=O)Nc1ccc(F)c(C(=O)c2c[nH]c3ncc(-c4ccc(Cl)cc4)cc23)c1F + CC(Nc1ncnc2nc[nH]c12)c1cc2cccc(Cl)c2c(=O)n1-c1ccccc1,IC50,second compound 0.0316 µM,5950 nM
same,IC50,second compound 0.1 µM,5790 nM
same,IC50,second compound 0.316 µM,6710 nM
same,IC50,second compound 1 µM,5500 nM
same,IC50,second compound 3.16 µM,6290 nM
same,IC50,second compound 10 µM,5980 nM
same,"viability, T/C",[5],94.8%
same,"viability, T/C",[6],108%
same,"viability, T/C","second compound 0.0316 µM, first compound 0.316 µM",98.4%
same,"viability, T/C","second compound 0.0316 µM, first compound 1 µM",107%
same,"viability, T/C","second compound 0.0316 µM, first compound 3.16 µM",88.8%
same,"viability, T/C","second compound 0.0316 µM, first compound 10 µM",17.8%
same,"viability, T/C",[11],99.8%
same,"viability, T/C",[12],99.8%
same,"viability, T/C","second compound 0.1 µM, first compound 0.316 µM",109%
same,"viability, T/C","second compound 0.1 µM, first compound 1 µM",105%
same,"viability, T/C","second compound 0.1 µM, first compound 3.16 µM",83.8%
same,"viability, T/C","second compound 0.1 µM, first compound 10 µM",19.7%
same,"viability, T/C",[17],98%
same,"viability, T/C",[18],106%
same,"viability, T/C","second compound 0.316 µM, first compound 0.316 µM",125%
same,"viability, T/C","second compound 0.316 µM, first compound 1 µM",104%
same,"viability, T/C","second compound 0.316 µM, first compound 3.16 µM",110%
same,"viability, T/C","second compound 0.316 µM, first compound 10 µM",18.9%
same,"viability, T/C",[23],103%
same,"viability, T/C",[24],93.9%
same,"viability, T/C","second compound 1 µM, first compound 0.316 µM",111%
same,"viability, T/C","second compound 1 µM, first compound 1 µM",94.5%
same,"viability, T/C","second compound 1 µM, first compound 3.16 µM",81.1%
same,"viability, T/C","second compound 1 µM, first compound 10 µM",16.6%
same,"viability, T/C",[29],114%
same,"viability, T/C",[30],111%
same,"viability, T/C","second compound 3.16 µM, first compound 0.316 µM",105%
same,"viability, T/C","second compound 3.16 µM, first compound 1 µM",106%
same,"viability, T/C","second compound 3.16 µM, first compound 3.16 µM",92.9%
same,"viability, T/C","second compound 3.16 µM, first compound 10 µM",21.1%
same,"viability, T/C",[35],89.7%
same,"viability, T/C",[36],96%
same,"viability, T/C","second compound 10 µM, first compound 0.316 µM",94.2%
same,"viability, T/C","second compound 10 µM, first compound 1 µM",88.7%
same,"viability, T/C","second compound 10 µM, first compound 3.16 µM",92.6%
same,"viability, T/C","second compound 10 µM, first compound 10 µM",16%
